Test results: ChEMBL document CHEMBL1201862, “PubChem BioAssay data set” (2004)
Active and inactive are the calls of the source.

Key:
Paired box protein Pax-8 = Paired box protein Pax-8 (Homo sapiens, UniProt Q06710); experiment: PAX8 transcriptional activity inhibition in RMG-I – RMG-I cells, luciferase, cherry-pick, dose response (AID 687027); type: functional, cell-based;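 further: luciferase reporter driven by Pax8 target thyroperoxidase promoter measured by SteadyGlo luminescence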
[1] = HEK-293T viability loss after treatment – luminescence, T-cell screen hits, cytotoxicity control for TCR NF-kB inhibitor project, dose response (AID 489026); type: functional, cell-based;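 further: cells exposed to compound about 14 hours before the viability readout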
[2] = target: T1, Microphthalmia-associated transcription factor (Homo sapiens, UniProt O75030); experiment: reducers of TRPM1 reporter luminescence, concentration series – cell-based, SK-MEL-5, cherry-picked, set 3, MITF inhibitor project, dose response (AID 493073); type: functional;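 further: SK-MEL-5 melanoma cells with luciferase driven by the MITF target TRPM1 promoter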
T1 sequence (O75030 whole entry): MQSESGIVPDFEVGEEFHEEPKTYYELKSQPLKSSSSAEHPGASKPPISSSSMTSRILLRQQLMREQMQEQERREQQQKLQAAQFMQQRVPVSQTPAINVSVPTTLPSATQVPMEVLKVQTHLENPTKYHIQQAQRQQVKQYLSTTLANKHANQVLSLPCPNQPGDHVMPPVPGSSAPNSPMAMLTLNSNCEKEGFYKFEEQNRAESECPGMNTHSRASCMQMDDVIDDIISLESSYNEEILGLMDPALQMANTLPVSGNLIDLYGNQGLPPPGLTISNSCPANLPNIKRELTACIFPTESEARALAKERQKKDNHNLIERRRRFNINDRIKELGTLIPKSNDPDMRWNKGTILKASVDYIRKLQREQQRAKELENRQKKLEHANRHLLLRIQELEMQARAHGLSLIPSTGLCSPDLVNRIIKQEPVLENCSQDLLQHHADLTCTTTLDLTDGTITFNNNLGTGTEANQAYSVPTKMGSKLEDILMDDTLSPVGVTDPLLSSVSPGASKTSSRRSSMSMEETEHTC

[3] = viability loss of HPDE-C7K cells – cell-based, fluorescence, HTS, primary screen (AID 431); type: functional; conditions: Homo sapiens
[4] = non-specific 3'UTR reporter inhibition in Clone20-Shn3RL – cell-based, Renilla luciferase, cherry-picked, counter-screen for Shn3 inhibitor project, dose response (AID 624133); type: functional
[5] = reduction of Shn3 3'UTR-driven luciferase in osteoblasts – cell-based, Clone20 osteoblasts, firefly luciferase, cherry-picked, dose response (AID 624132); type: functional;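 further: firefly luciferase luminescence from reporter carrying the Shn3 3'UTR in osteoblasts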
HEK293 = experiment: EBV LMP1 TES2 canonical NF-kB signalling blockers – cell-based, HEK293, luciferase, cherry-pick, dose response (AID 588343); type: functional; conditions: Homo sapiens
[6] = HPDE-C7 pancreatic duct cell viability loss – fluorescence, HTS (AID 430); type: functional, cell-based; conditions: Homo sapiens
INS1 = experiment: INS-1E survival protection against cytokine death – cell-based, luminescence, retest, dose response (AID 449756); type: functional; conditions: Rattus norvegicus;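 further: cell death triggered by IL-1 beta plus TNF-alpha plus IFN-gamma mixture; protective hits raise ATP signal compared with cytokine alone wells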
[7] = loss of viability in HepG2 cells – cell-based, CellTiter-Glo, cherry-picked, cytotoxicity control for Shn3 inhibitor project, dose response (AID 624134); type: functional
Fatty acid synthase [8] = target: T2, Fatty acid synthase (Homo sapiens, UniProt P49327); experiment: inhibition of human FAS-TE enzyme activity – biochemical, endpoint fluorescence intensity, uHTS hits, dose response (AID 624327); type: functional;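 further: fluorescence from hydrolysis of an O-methyl fluorescein acyl ester substrate by the enzyme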
T2 sequence (P49327 whole entry): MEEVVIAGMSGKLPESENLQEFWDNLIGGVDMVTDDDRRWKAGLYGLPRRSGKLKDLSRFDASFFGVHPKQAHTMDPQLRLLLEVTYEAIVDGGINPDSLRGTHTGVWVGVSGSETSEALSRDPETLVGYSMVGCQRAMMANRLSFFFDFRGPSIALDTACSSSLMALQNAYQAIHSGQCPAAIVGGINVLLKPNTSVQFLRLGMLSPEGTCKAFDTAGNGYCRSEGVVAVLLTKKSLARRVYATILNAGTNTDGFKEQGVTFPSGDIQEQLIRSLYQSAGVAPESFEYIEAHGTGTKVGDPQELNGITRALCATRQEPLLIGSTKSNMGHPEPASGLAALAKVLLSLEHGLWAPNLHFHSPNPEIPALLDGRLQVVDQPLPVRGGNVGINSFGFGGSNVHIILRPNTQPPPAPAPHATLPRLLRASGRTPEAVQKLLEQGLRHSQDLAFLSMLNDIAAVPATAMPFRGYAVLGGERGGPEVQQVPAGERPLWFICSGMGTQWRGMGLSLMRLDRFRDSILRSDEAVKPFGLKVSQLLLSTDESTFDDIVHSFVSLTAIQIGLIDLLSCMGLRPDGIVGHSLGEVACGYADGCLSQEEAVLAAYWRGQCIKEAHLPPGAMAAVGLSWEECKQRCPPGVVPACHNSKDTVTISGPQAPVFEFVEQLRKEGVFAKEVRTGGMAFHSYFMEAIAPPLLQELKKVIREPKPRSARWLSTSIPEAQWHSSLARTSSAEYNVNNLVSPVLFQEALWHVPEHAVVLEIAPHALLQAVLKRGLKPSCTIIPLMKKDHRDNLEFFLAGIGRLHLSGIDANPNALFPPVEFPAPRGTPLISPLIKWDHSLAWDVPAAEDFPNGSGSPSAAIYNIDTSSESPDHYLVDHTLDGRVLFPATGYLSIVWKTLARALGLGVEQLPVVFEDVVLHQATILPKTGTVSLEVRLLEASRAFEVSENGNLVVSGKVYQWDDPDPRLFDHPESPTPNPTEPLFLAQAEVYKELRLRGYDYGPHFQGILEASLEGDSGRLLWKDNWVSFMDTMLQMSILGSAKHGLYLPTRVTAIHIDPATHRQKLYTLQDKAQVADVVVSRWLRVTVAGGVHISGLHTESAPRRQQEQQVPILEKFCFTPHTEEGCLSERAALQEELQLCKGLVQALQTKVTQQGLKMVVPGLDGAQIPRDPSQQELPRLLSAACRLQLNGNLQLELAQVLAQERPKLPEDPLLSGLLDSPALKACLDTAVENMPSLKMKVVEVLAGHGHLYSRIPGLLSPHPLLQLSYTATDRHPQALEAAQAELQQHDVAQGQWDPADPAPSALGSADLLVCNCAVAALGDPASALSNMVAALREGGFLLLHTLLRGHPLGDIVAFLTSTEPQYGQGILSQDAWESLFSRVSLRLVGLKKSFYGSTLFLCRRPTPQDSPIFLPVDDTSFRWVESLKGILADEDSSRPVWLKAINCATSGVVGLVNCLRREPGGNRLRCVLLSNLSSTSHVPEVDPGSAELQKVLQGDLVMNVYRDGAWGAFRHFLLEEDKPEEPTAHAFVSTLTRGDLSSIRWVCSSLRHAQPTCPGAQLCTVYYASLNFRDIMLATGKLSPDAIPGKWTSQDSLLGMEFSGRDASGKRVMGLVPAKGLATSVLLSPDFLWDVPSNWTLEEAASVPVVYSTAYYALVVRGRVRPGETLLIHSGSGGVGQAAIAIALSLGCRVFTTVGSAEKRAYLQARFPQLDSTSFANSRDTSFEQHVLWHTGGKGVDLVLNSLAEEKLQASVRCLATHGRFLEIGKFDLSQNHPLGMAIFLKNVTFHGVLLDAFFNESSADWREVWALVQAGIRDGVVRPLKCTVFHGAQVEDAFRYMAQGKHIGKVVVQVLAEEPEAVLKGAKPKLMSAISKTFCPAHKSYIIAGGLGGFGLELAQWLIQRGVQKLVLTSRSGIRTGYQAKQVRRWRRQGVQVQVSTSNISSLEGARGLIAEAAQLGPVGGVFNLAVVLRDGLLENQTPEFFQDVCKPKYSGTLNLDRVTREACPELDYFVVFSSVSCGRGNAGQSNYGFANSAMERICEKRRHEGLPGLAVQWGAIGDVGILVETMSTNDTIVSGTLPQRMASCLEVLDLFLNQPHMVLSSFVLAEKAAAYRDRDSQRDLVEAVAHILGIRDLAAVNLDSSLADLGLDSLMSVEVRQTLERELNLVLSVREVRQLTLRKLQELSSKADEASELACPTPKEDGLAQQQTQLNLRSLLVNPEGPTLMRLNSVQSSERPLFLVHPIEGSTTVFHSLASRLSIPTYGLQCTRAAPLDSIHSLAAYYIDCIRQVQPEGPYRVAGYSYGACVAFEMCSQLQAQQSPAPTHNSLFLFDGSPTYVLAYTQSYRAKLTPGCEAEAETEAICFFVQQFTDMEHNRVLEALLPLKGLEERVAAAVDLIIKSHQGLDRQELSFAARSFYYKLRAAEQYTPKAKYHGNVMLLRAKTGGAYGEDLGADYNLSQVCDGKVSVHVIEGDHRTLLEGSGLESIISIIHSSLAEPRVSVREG

Fatty acid synthase [9] = target: T2, Fatty acid synthase; experiment: inhibition of human FAS-TE enzyme activity – biochemical, kinetic fluorescence intensity, dose response (AID 624326); type: functional;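 further: rate of fluorescence rise from hydrolysis of a fluorogenic O-methyl fluorescein ester substrate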
[10] = target: T3, Low molecular weight phosphotyrosine protein phosphatase (Homo sapiens, UniProt P24666); type: functional; conditions: read-out: IC50_Mean;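 further: Dose-response confirmation assay measuring inhibition of LMPTP enzyme activity by fluorescence intensity read-out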
T3 sequence (P24666 whole entry): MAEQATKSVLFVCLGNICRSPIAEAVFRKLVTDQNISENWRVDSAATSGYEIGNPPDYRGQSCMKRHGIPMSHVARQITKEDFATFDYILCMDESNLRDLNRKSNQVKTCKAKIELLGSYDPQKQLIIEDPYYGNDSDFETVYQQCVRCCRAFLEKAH

Cytochrome P450 3A4 = Cytochrome P450 3A4 (Homo sapiens, UniProt P08684);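 further: CYP3A4 tested as one member of a cytochrome P450 panel screen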
Cytochrome P450 2C19 = Cytochrome P450 2C19 (Homo sapiens, UniProt P33261); experiment: Cytochrome panel assay with activity outcomes. Panel member name: p450-cyp2c19 Compounds with AC50 equal or less than 10 uM are considered active; type: functional; conditions: read-out: AC50
Cytochrome P450 2C9 = Cytochrome P450 2C9 (Homo sapiens, UniProt P11712)
Cytochrome P450 2C9, sequence (P11712 whole entry): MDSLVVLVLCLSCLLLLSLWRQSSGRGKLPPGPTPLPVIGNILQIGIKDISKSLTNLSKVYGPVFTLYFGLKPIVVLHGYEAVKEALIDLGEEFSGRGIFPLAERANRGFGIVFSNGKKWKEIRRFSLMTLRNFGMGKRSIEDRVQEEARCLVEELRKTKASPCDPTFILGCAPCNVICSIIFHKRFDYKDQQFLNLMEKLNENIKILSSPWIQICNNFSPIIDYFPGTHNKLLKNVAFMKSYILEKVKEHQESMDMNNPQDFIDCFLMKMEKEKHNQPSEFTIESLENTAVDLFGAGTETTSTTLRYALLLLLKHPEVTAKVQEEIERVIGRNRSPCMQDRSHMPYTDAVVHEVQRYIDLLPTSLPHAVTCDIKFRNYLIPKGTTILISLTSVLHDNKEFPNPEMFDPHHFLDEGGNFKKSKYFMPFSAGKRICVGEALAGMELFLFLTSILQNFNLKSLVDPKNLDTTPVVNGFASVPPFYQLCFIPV

[11] = target: T4, Histone-lysine N-methyltransferase NSD2 (Homo sapiens, UniProt O96028); type: biochemical
T4 sequence (O96028 whole entry): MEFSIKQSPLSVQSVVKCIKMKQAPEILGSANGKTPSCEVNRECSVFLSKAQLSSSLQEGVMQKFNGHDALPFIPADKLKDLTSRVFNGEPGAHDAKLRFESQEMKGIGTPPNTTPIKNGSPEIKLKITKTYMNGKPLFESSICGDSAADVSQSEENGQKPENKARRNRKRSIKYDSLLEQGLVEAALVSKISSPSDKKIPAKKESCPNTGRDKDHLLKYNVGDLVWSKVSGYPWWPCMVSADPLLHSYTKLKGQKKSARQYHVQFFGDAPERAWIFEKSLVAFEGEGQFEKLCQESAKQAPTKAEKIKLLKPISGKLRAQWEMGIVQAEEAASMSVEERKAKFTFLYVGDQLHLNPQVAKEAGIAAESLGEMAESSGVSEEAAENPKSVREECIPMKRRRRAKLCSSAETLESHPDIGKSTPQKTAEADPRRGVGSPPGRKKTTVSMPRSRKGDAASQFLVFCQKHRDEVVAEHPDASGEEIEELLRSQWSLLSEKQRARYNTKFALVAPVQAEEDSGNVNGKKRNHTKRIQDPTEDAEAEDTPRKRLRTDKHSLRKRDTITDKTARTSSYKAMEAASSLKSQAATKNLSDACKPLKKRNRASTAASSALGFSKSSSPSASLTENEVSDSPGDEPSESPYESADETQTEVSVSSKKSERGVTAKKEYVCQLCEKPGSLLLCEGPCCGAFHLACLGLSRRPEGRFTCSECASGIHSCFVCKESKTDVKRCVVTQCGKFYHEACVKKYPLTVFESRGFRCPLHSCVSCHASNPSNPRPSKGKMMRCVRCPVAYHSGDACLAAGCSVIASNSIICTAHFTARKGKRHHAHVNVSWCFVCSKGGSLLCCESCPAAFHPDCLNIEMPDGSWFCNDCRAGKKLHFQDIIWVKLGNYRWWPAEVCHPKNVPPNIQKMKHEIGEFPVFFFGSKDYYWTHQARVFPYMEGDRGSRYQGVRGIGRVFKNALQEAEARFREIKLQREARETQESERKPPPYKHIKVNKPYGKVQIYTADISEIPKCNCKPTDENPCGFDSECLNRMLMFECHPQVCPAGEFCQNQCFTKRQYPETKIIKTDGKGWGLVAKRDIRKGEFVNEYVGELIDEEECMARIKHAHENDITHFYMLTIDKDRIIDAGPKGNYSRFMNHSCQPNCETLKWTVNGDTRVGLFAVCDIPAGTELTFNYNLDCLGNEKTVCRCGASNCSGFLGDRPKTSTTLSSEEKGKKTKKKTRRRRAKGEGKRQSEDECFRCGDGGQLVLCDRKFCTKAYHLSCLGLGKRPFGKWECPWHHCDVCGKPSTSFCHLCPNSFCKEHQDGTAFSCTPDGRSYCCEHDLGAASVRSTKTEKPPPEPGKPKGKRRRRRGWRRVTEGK

[12] = target: 72 kDa type IV collagenase (Homo sapiens, UniProt P08253); experiment: Dose Response validation of uHTS RPN11 inhibitor hits using a MMP-2 Fluorescence assay.; type: functional
72 kDa type IV collagenase, sequence (P08253 whole entry): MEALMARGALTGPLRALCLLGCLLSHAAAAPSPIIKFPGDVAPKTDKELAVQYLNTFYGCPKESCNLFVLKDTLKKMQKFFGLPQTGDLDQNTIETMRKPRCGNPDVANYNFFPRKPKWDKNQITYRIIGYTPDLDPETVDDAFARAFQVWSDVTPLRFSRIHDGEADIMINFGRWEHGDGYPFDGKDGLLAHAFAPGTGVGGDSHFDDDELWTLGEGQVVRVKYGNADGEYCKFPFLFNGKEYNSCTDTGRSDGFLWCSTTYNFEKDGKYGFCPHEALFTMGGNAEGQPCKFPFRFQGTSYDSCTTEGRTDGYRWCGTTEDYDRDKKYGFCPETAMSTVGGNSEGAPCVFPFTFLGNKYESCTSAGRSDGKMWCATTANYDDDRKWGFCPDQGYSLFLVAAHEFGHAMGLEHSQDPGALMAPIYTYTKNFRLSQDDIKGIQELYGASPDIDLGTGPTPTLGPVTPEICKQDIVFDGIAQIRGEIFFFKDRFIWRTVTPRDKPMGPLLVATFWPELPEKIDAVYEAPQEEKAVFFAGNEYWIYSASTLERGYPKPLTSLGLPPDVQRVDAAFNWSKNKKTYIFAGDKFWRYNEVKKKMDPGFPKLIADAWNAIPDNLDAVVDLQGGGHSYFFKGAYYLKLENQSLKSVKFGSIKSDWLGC

[13] = target: 26S proteasome non-ATPase regulatory subunit 14 (Homo sapiens, UniProt O00487); experiment: inhibition of proteasome subunit RPN11 – biochemical, fluorescence polarization, uHTS hits, confirmation (AID 602368); type: functional
26S proteasome non-ATPase regulatory subunit 14, sequence (O00487 whole entry): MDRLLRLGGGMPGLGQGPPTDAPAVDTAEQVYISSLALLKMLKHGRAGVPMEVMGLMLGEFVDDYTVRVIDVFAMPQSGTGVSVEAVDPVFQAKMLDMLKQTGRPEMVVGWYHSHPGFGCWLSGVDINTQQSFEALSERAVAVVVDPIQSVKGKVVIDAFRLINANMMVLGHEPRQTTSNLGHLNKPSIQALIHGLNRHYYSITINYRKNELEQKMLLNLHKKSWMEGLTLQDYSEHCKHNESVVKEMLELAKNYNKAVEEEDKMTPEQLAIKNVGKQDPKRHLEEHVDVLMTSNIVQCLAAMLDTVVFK

Prothrombin = Prothrombin (Bos taurus, UniProt P00735); experiment: thrombin protease inhibitors – biochemical, fluorescence polarization, uHTS hits, dose response (AID 602369); type: functional
[14] = target: Induced myeloid leukemia cell differentiation protein Mcl-1 (Homo sapiens, UniProt Q07820); type: functional
[15] = OVCAR-3 cell viability loss – plate reader, dry powder samples, PAX8 inhibitor project, dose response (AID 743044); type: functional, cell-based
[16] = OVCAR8 cell viability loss – plate reader, dry powder samples, PAX8 project, dose response (AID 743197); type: functional, cell-based; conditions: OVCAR-8
[17] = IGROV1 cell killing – plate reader, dry powder samples, PAX8 inhibitor project, dose response (AID 743043); type: functional, cell-based; conditions: IGROV-1
[18] = target: Luciferin 4-monooxygenase (Photinus pyralis, UniProt P08659); experiment: inhibition of purified Photinus pyralis luciferase – biochemical, luminescence, dose response (AID 1891)
Luciferin 4-monooxygenase, sequence (P08659 whole entry): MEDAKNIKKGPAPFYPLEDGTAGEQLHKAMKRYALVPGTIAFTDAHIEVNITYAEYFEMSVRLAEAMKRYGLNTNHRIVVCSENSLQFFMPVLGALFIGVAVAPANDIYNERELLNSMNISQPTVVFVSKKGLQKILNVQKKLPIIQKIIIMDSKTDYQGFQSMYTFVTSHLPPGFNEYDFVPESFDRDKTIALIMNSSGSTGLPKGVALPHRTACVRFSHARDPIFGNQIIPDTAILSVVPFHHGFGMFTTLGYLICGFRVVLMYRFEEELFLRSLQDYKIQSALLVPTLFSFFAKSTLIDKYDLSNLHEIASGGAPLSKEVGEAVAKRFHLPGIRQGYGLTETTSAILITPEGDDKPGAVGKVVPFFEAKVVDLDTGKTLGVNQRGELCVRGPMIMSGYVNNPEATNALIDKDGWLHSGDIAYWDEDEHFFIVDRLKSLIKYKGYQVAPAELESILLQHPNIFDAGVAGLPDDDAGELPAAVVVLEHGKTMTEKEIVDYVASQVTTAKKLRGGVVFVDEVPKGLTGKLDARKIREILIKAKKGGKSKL

[19] = Luminescence Cell-Based Dose Confirmation HTS to Identify Inhibitors of Platelet Dense Granule Release. [Related pubchem assays: 1663 (Primary HTS), 1678 (Summary of Project)]; type: functional
[20] = viability of PTEN-deleted HCT116 cells – cell-based, HCT116 PTEN knockout, dose response (AID 1047); type: functional;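 further: HCT116 colon tumor cells with PTEN knocked out; cells exposed to compound for 60 hours before readout; potency for loss of cell viability measured by luminescence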
[21] = viability of HCT116 lacking mutant beta-catenin – cell-based, human colon tumor, dose response (AID 1045); type: functional;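 further: HCT116 colon tumor cells with beta catenin knocked out; cells exposed to compound for 60 hours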

Paired box protein Pax-8, sequence (Q06710 whole entry): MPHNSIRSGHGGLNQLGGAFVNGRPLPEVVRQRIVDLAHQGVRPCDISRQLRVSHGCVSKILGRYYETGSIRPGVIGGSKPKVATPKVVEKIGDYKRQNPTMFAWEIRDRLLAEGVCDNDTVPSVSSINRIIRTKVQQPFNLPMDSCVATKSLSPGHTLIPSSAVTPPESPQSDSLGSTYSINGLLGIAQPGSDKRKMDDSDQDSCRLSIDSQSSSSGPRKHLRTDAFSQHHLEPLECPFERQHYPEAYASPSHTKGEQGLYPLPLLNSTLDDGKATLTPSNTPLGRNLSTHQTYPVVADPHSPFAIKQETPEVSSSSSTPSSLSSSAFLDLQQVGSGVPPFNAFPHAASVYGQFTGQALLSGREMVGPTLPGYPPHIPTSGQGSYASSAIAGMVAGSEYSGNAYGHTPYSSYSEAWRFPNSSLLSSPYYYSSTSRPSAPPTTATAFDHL

COc1cc(C2C(C#N)=C(N)Oc3cc4c(cc32)OCO4)cc(OC)c1OC (stereo not drawn)
AC50 (Paired box protein Pax-8): 0.553 µM (active) | IC50 [1]: > 80 µM (inactive) | AC50 [2]: 0.365 µM (active)

O=C(c1ccccc1)C(CCC(CN1CCOCC1)C(=O)c1ccccc1)CN1CCOCC1 (stereo not drawn)
EC50 [3]: 6.43 µM (active) | AC50 [4]: 11.9 µM (active) | AC50 [5]: 12.8 µM (active) | AC50 (HEK293): 6.35 µM (active) | EC50 [6]: 11.1 µM (active) | AC50 (INS1): > 120 µM (inactive) | AC50 [7]: 12.6 µM (active)

CC(C)(C)c1ccc(C(=O)OCCNC(=O)c2c(Cl)nc3ccccn23)cc1
IC50 (Fatty acid synthase [8]): 5.51 µM (active) | IC50 (Fatty acid synthase [9]): 4.36 µM (active)

CCn1cc(C(=O)O)c(=O)c2cc(F)c(N3CCN(C(=S)NC(=O)c4ccccc4F)CC3)cc21
IC50 [10]: 6.64 µM (active)

COc1ccc(C(=O)NCc2cn3ccccc3n2)cc1
AC50 (Cytochrome P450 3A4): 28.2 µM (inconclusive) | AC50 (Cytochrome P450 2C19): 20 µM (inconclusive) | AC50 (Cytochrome P450 2C9): inconclusive

CCC(C)NCCCOc1cc(Cl)ccc1Cl (stereo not drawn)
AC50 [11]: > 20 µM (inactive)

COc1ccccc1C1=NOC(COC(=O)c2ccc3ccccc3n2)C1 (stereo not drawn)
AC50 (Cytochrome P450 2C9): inconclusive

Cc1cc(N2CCN(c3nc(-c4ccc([N+](=O)[O-])cc4)cs3)CC2)c2ccccc2n1
IC50 [10]: 4.77 µM (active)

O=C(Nc1ccc2c(c1)CCC2)c1cc(S(=O)(=O)N2CCN(c3ccccc3)CC2)ccc1Cl
IC50 [12]: > 100 µM (inactive) | IC50 [13]: 50.9 µM (active) | IC50 (Prothrombin): 31.6 µM (active)

NC1=NC(=O)/C(=C/c2cn(CCC(=O)O)nc2-c2ccc(Cl)cc2)S1
IC50 [12]: > 100 µM (inactive) | IC50 [13]: 44.7 µM (active) | IC50 [14]: 4.92 µM (active) | IC50 (Prothrombin): 40.4 µM (active)

COc1ccccc1CC(=N)NOC(=O)c1ccc(C)c([N+](=O)[O-])c1
AC50 (Cytochrome P450 2C9): inconclusive

CC(=O)NC1=C(N2CC2C)C(=O)C(NC(C)=O)=C(N2CC2C)C1=O (stereo not drawn)
AC50 [11]: 10.2 µM (active)

O=C1C=Cc2cccc3ccc(O)c1c23
AC50 (HEK293): 18.1 µM (active)

COC(=O)[C@@]1(Cc2ccccc2)[C@H]2C(=O)N(Cc3ccccc3)C(=O)[C@H]2[C@H]2CN=C(SCc3ccc(Cl)cc3)N21
AC50 (HEK293): 6.5 µM (active)

Cc1nc2c(OCc3ccc(Cl)cc3Cl)cccn2c1N(C)CC1CC1
AC50 [4]: 19.9 µM (active) | AC50 [5]: 10 µM (active) | IC50 (Fatty acid synthase [8]): 12.7 µM (active) | IC50 (Fatty acid synthase [9]): 12.9 µM (active) | AC50 [7]: 35.3 µM (active)

COc1ccc(Cc2c(-c3ccc(C)cc3)nc3ccc(Cl)cn23)c(C)c1
IC50 [12]: 92.4 µM (active) | IC50 [13]: 27.1 µM (active) | IC50 (Prothrombin): 22.2 µM (active)

O=C(N/N=C/C(Cl)=C/c1ccccc1)c1ccc2c(c1)OCO2
IC50 [10]: 52.9 µM (inactive)

COc1cccc2cc(C(=O)Nc3ccc(F)cc3)/c(=N/c3ccc(C(=O)O)cc3)oc12
IC50 [12]: > 100 µM (inactive) | IC50 [13]: 48.2 µM (active) | IC50 (Prothrombin): 21.7 µM (active)

O=C(N/N=C/C(Br)=C/c1ccccc1)c1ccc([N+](=O)[O-])cc1
IC50 [10]: 10.4 µM (active)

CC(C)COc1ccc(C(=O)N/C(=C\c2cccc([N+](=O)[O-])c2)C(=O)O)cc1
IC50 (Fatty acid synthase [8]): 8.63 µM (active) | IC50 (Fatty acid synthase [9]): 9.1 µM (active)

O=C(Nc1cccc(F)c1)N1CCCCN2[C@@H](CO)[C@@H](c3ccc(C#Cc4ccccc4)cc3)[C@@H]2C1
AC50 [15]: 5.97 µM (active) | AC50 [16]: 21.4 µM (active) | AC50 (Paired box protein Pax-8): 10.1 µM (active) | AC50 [17]: 13.4 µM (active)

Cn1nc(C(F)(F)F)c(/C=N/OC(=O)c2ccccc2)c1Cl
AC50 (Cytochrome P450 2C9): inactive

COc1ccc(C(=O)/N=c2\nc3ccccn3s2)cc1
EC50 [18]: 1.07 µM (active) | EC50 [19]: 5.24 µM (active) | AC50 (HEK293): 0.768 µM (active)

CCN(CC)C(=O)C(=O)N/N=C/c1cccc(Br)c1
AC50 (Cytochrome P450 2C9): inconclusive

C/C(=N\Nc1nc(N2CCOCC2)nc(N2CCOCC2)n1)c1ccc([N+](=O)[O-])cc1
IC50 (Fatty acid synthase [8]): 14.5 µM (active) | IC50 (Fatty acid synthase [9]): 17.9 µM (active)

COc1ccc(C(=O)C[n+]2ccc3c(c2)nc(-c2ccc(OC)cc2OC)n3C)cc1
EC50 [20]: 31.2 µM (active) | EC50 [21]: 22 µM (active)
